Reference: patent US12030879B2, “Sulfonyl acetamides as NLRP3 inhibitors” (Inflazome Limited, priority 2018, dated 2024)
Where a name gives a salt, the structure may show the parent alone.

Biological target: T1, NLRP3 (Homo sapiens, UniProt Q96P20)
T1 construct: Seed THP-1 cells (25,000 cells/well) containing 1.0 μg/ml LPS in 40 μl of RPMI medium; host or cells: THP-1 cells
Experiment: THP-1 cells pyroptosis assay
Type: cell-based
Details: LPS 1 μg/ml, compound 3 hrs, nigericin 5 μM 1 hr, resazurin readout
Procedure: THP-1 cells (ATCC #TIB-202) were grown in RPMI containing L-glutamine (Gibco #11835) supplemented with 1 mM sodium pyruvate (Sigma #S8636) and penicillin (100 units/ml)/streptomycin (0.1 mg/ml) (Sigma #P4333) in 10% Fetal Bovine Serum (FBS) (Sigma #F0804). The cells were routinely passaged and grown to confluency (10^6 cells/ml). On the day of the experiment, THP-1 cells were harvested and resuspended into RPMI medium (without FBS). The cells were then counted and viability (>90%) checked by Trypan blue (Sigma #T8154). Appropriate dilutions were made to give a concentration of 625,000 cells/ml. To this diluted cell solution was added LPS (Sigma #L4524) to give a 1 μg/ml Final Assay Concentration (FAC). 40 μl of the final preparation was aliquoted into each well of a 96-well plate. The plate thus prepared was used for compound screening.
The following method step-by-step assay was followed for compound screening. • 1. Seed THP-1 cells (25,000 cells/well) containing 1.0 μg/ml LPS in 40 μl of RPMI medium (without FBS) in 96-well, black walled, clear bottom cell culture plates coated with poly-D-lysine (VWR #734-0317) • 2. Add 5 μl compound (8 points half-log dilution, with 10 μM top dose) or vehicle (DMSO 0.1% FAC) to the appropriate wells • 3. Incubate for 3 hrs at 37° C., 5% CO2 • 4. Add 5 μl nigericin (Sigma #N7143) (FAC 5 μM) to all wells • 5. Incubate for 1 hr at 37° C., 5% CO2 • 6. At the end of the incubation period, spin plates at 300×g for 3 mins and remove supernatant • 7. Then add 50 μl of resazurin (Sigma #R7017)(FAC 100 μM resazurin in RPMI medium without FBS) and incubate plates for a further 1-2 hrs at 37° C. and 5% CO2 • 8. Plates were read in an Envision reader at Ex 560 nm and Em 590 nm • 9. IC50 data is fitted to a non-linear regression equation (log inhibitor vs response-variable slope 4-parameters) 96-well Plate Map

T1 sequence (Q96P20 whole entry): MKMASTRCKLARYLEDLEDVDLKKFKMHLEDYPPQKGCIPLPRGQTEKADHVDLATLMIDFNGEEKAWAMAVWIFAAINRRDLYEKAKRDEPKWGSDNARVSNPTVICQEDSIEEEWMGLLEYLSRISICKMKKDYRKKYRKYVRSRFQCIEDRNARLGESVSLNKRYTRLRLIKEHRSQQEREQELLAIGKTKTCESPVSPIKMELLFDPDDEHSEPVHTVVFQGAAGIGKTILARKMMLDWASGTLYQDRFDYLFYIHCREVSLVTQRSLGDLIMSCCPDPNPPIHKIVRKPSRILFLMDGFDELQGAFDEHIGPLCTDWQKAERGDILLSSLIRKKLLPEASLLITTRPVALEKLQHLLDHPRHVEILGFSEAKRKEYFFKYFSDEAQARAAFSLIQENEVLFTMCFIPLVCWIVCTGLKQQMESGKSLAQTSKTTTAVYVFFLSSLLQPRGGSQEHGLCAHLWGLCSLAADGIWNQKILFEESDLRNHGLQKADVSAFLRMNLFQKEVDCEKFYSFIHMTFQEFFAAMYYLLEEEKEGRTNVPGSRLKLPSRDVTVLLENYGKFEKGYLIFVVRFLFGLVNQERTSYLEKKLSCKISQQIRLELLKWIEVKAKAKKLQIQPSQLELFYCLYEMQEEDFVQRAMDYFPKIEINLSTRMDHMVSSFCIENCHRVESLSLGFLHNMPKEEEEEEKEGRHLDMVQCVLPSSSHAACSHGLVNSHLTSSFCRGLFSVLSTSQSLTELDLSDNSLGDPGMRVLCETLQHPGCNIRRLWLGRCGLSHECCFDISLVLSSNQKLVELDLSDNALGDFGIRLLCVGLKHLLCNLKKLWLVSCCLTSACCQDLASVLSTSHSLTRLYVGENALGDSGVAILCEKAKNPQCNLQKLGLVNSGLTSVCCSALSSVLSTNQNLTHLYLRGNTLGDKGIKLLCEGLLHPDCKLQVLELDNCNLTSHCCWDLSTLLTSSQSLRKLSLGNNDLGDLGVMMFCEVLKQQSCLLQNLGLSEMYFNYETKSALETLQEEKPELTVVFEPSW

| Compound | IC50 [µM] |
| --- | --- |
| COc1cc(-c2cc(F)cc(C(C)C)c2CC(=O)NS(=O)(=O)c2ccc(F)c(C(C)(C)O)c2)ccn1 [Example 79, 2-(4-Fluoro-2-isopropyl-6-(2-methoxypyridin-4-yl)phenyl)-N-((4-fluoro-3-(2-hydroxypropan-2-yl)phenyl)sulfonyl)acetamide] | ≤ 1 |
| COc1cc(-c2cc(F)cc(C(C)C)c2CC(=O)NS(=O)(=O)c2cccc(C(C)(C)O)c2)ccn1 [Example 89, 2-(4-Fluoro-2-isopropyl-6-(2-methoxypyridin-4-yl)phenyl)-N-((3-(2-hydroxypropan-2-yl)phenyl)sulfonyl)acetamide] | ≤ 1 |
| COc1cc(-c2cc(F)cc(C(C)C)c2CC(=O)NS(=O)(=O)c2ccc(Cl)cc2)ccn1 [Example 93, N-((4-Chlorophenyl)sulfonyl)-2-(4-fluoro-2-isopropyl-6-(2-methoxypyridin-4-yl)phenyl)acetamide] | ≤ 1 |
| COc1cc(-c2cc(F)cc(C(C)C)c2CC(=O)NS(=O)(=O)c2cc(C(C)(C)O)n(C)n2)ccn1 [Example 197] | ≤ 5 |
| COc1cc(-c2cc(F)cc(C(C)C)c2CC(=O)NS(=O)(=O)c2cccc(Cl)c2C)ccn1 [Example 6] | ≤ 10 |
| COc1cc(-c2cc(F)cc(C(C)C)c2CC(=O)NS(=O)(=O)c2ccc(F)c(C#N)c2)ccn1 [Example 34, N-((3-Cyano-4-fluorophenyl)sulfonyl)-2-(4-fluoro-2-isopropyl-6-(2-methoxypyridin-4-yl)phenyl)acetamide] | ≤ 10 |
| CC(C)c1cc(F)cc(-c2ccncc2)c1CC(=O)NS(=O)(=O)c1ccc(Cl)cc1 [Example 16] | ≤ 5 |
| COc1cc(-c2cc(F)cc(C(C)C)c2CC(=O)NS(=O)(=O)c2ccc(Cl)cc2OC)ccn1 [Example 12] | ≤ 1 |
| COc1cc(-c2cc(F)cc(C(C)C)c2CC(=O)NS(=O)(=O)c2ncc(C(C)(C)O)s2)ccn1 [Example 106, 2-(4-Fluoro-2-isopropyl-6-(2-methoxypyridin-4-yl)phenyl)-N-((5-(2-hydroxypropan-2-yl)thiazol-2-yl)sulfonyl)acetamide] | ≤ 5 |
| COc1cc(-c2cc(F)cc(C(C)C)c2CC(=O)NS(=O)(=O)c2ccc(Cl)c(C(F)(F)F)c2)ccn1 [Example 141] | ≤ 1 |
| COc1cc(-c2cc(F)cc(C(C)C)c2CC(=O)NS(=O)(=O)c2ccc(NC(C)=O)cc2)ccn1 [Example 95, N-((4-Acetamidophenyl)sulfonyl)-2-(4-fluoro-2-isopropyl-6-(2-methoxypyridin-4-yl)phenyl)acetamide] | ≤ 10 |
| CCN(CC)CCCS(=O)(=O)NC(=O)Cc1c(-c2ccnc(OC)c2)ccc2c1CCC2 [Example 56, N-((3-(Diethylamino)propyl)sulfonyl)-2-(5-(2-methoxypyridin-4-yl)-2,3-dihydro-1H-inden-4-yl)acetamide] | ≤ 10 |
| CC(C)c1cc(F)cc(-c2ccnc(O)c2)c1CC(=O)NS(=O)(=O)c1cc(C(C)(C)O)cs1 [Example 158] | ≤ 5 |
| CC(C)c1cc(F)cc(-c2cccnc2)c1CC(=O)NS(=O)(=O)c1ccn(C(C)C)n1 [Example 24, 2-(4-Fluoro-2-isopropyl-6-(pyridin-3-yl)phenyl)-N-((1-isopropyl-1H-pyrazol-3-yl)sulfonyl)acetamide, potassium salt] | ≤ 10 |
| COc1cc(-c2ccc3c(c2CC(=O)NS(=O)(=O)c2cc(C(C)(C)O)cs2)CCC3)ccn1 [Example 20, N-((4-(2-Hydroxypropan-2-yl)thiophen-2-yl)sulfonyl)-2-(5-(2-methoxypyridin-4-yl)-2,3-dihydro-1H-inden-4-yl)acetamide] | ≤ 1 |
| COc1cc(-c2cc(F)cc(C(C)C)c2CC(=O)NS(=O)(=O)c2c(Cl)cc(N(C)C)cc2Cl)ccn1 [Example 161] | ≤ 5 |
| COc1cc(-c2cc(F)cc(C(C)C)c2CC(=O)NS(=O)(=O)c2ccc(C#N)cc2C)ccn1 [Example 37, N-((4-Cyano-2-methylphenyl)sulfonyl)-2-(4-fluoro-2-isopropyl-6-(2-methoxypyridin-4-yl)phenyl)acetamide] | ≤ 5 |
| CC(C)n1ccc(S(=O)(=O)NC(=O)Cc2c(-c3ccnc(C#N)c3)ccc3c2CCC3)n1 [Example 21, 2-(5-(2-Cyanopyridin-4-yl)-2,3-dihydro-H-inden-4-yl)-N-((1-isopropyl-1H-pyrazol-3-yl)sulfonyl)acetamide] | ≤ 10 |
| COc1cc(-c2cc(F)cc(C(C)C)c2CC(=O)NS(=O)(=O)c2ccc(-c3cnco3)cc2)ccn1 [Example 184] | ≤ 1 |
| COc1cc(-c2cc(F)cc(C(C)(C)F)c2CC(=O)NS(=O)(=O)c2ccc(C(C)(C)O)cc2C)ccn1 [Example 86, 2-(4-Fluoro-2-(2-fluoropropan-2-yl)-6-(2-methoxypyridin-4-yl)phenyl)-N-((4-(2-hydroxypropan-2-yl)-2-methylphenyl)sulfonyl)acetamide] | ≤ 5 |
| COc1cc(-c2cc(F)cc(C(C)C)c2CC(=O)NS(=O)(=O)c2nnc(NC(C)=O)s2)ccn1 [Example 138] | ≤ 10 |
| COc1cc(-c2cc(F)cc(C(C)C)c2CC(=O)NS(=O)(=O)c2cc(Br)ccc2C)ccn1 [Example 128] | ≤ 1 |
| COc1cc(-c2cc(F)cc(C(C)C)c2CC(=O)NS(=O)(=O)c2ccc(Cl)cc2Cl)ccn1 [Example 13] | ≤ 1 |

More lines, now with the values ahead:

| IC50 [µM] | Compound |
| --- | --- |
| ≤ 0.5 | COc1ccc(-c2cc(F)cc(C(C)C)c2CC(=O)NS(=O)(=O)c2cc(C(C)(C)O)cs2)cn1 [Example 145] |
| ≤ 0.5 | COc1cc(-c2cc(F)cc(C(C)C)c2CC(=O)NS(=O)(=O)c2cn(C(C)C)nc2C)ccn1 [Example 173] |
| ≤ 0.5 | C=C(C)c1ccc(S(=O)(=O)NC(=O)Cc2c(-c3ccnc(OC)c3)cc(F)cc2C(C)C)c(C)c1 [Example 164] |
| ≤ 0.5 | C=C(C)c1cc(S(=O)(=O)NC(=O)Cc2c(-c3ccnc(OC)c3)cc(F)cc2C(C)C)c(F)cc1F [Example 165] |
| ≤ 0.5 | COc1ccncc1-c1cc(F)cc(C(C)C)c1CC(=O)NS(=O)(=O)c1cc(C(C)C)c(F)cc1F [Example 203] |
| ≤ 0.5 | COc1cc(-c2cc(F)cc(C(C)C)c2CC(=O)NS(=O)(=O)c2cc(C(C)C)ccc2C)ccn1 [Example 206] |
| ≤ 0.5 | CC(C)c1cc(S(=O)(=O)NC(=O)Cc2c(-c3cccnc3)cc(F)cc2C(C)C)c(F)cc1F [Example 200] |
| ≤ 0.5 | COc1ccncc1-c1cc(F)cc(C(C)C)c1CC(=O)NS(=O)(=O)c1cc(C(C)(C)O)cs1 [Example 99, 2-(4-Fluoro-2-isopropyl-6-(4-methoxypyridin-3-yl)phenyl)-N-((4-(2-hydroxypropan-2-yl)thiophen-2-yl)sulfonyl)acetamide] |
| ≤ 0.5 | COc1cc(-c2cc(F)cc(C(C)C)c2CC(=O)NS(=O)(=O)c2ccc(C(C)C)cn2)ccn1 [Example 185] |
| ≤ 0.5 | COc1cc(-c2cc(F)cc(C(C)C)c2CC(=O)NS(=O)(=O)c2ccc(C3CC3)cc2C)ccn1 [Example 151] |
| ≤ 0.5 | COc1cc(-c2cc(F)cc(C(C)C)c2CC(=O)NS(=O)(=O)c2ccc3c(c2)COC3)ccn1 [Example 124] |
| ≤ 0.5 | COc1cc(-c2cc(F)cc(C(C)C)c2CC(=O)NS(=O)(=O)c2cc(F)c(Br)cc2C)ccn1 [Example 139] |
| ≤ 0.5 | COc1cc(-c2cc(F)cc(C(C)C)c2CC(=O)NS(=O)(=O)c2ccc(N(C)C)cc2C)ccn1 [Example 14] |
| ≤ 0.5 | COc1cc(-c2cc(F)cc(C(C)C)c2CC(=O)NS(=O)(=O)c2cc(C(C)(C)O)ccn2)ccn1 [Example 170] |
